This is an account of results in patent publication US20230312652A1, “NOVEL PEPTIDES AND USES THEREOF” (Aarhus Universitet, priority 2020, published 2023).

Series [1] relates to cortical neurons. As to the kind of experiment: Survival of wild-type cortical neurons, MTT assay. It counts as cell-based, mouse. The method, then: Cortical neurons were isolated from p0 wild-type mice and seeded in a density of 50.000 in a 96-well plate pre-coated with poly-L and laminin and incubated at 37° C. in a 5% C02 atmosphere. At 7 days in vitro (DIV7) the neurons were treated by changing half the media with neurobasal A with B27 containing the peptides (P2, P4 or P6) to give a finale concentration of 1 uM and further incubated. The cortical neurons were treated in a likewise manner on DIV9 and DIV11. At DIV12 half the media was removed and 3-(4,5-dimethylthiazole-2-yl)-2,5-diphenyltetrazolium bromide (MTT) was added to the media to give a finale concentration of 0.5 mg/mL. MTT is reduced by mitochondrial enzymes in active cells to an insoluble product called formazan, which can be detected by colorimetry. Thus, the colour generated reflects activity and viable cells in the culture. The neurons were incubated for 4 hours with MTT and thereafter lysed in a 50% EtOH and 50% DMSO solution. To assure proper mixing of formazan, the plate was left to shake for 30 minutes before being measured at 570 nm and 650 nm. Student's t-test was used for statistical analysis.
Further, a drug-dose response on survival for peptide P1 was assessed in a similar manner.
Background: Tetrazolium assays rely on reduction of a dye to a coloured formazan, in cell work by metabolically active cells.

Series [2] relates to ST HDH cells (Q111, Q7). As to the kind of experiment: Active mitochondrial mass in ST HDH cells, MitoTracker. It counts as cell-based, mouse. The protocol: The impact on mitochondrial function was assessed in ST HDH cells (mouse striatal cell line) expressing either HTT with a 111 polyglutamine stretch (Q111) or a 7 polyglutamine stretch (Q7), thereby serving as a model of HD. The cells were stimulated with P1 at timepoints between 0-24 hours and mitochondrial mass was subsequently measured using MitoTracker—a probe which binds to active mitochondria. Signal was measured in plate-reader at ex/em […].

For series [3], the system named is CREB and AMPK. Description: CREB and AMPK activation in brain of wild-type mice after subcutaneous injection. The series is classed as in vivo, mouse. Conditions: SC. The protocol: To assess the subcutaneous administration route of peptide P1, 8 weeks old wild-type mice were subcutaneously injected with different doses ranging between 0.13 to 26 mg/kg of peptide P1 dissolved in 4.38 mM L-His, 140 mM NaCl, 0.2% Tween-20 and 1500 IU hyaluronidase (pH 6.15). Likewise, was an earlier lead peptide constituting a linear version of P1 attached to a cell-penetrating moiety (P9, SEQ ID NO: 9), tested for its ability to activate CREB in both striatum and hippocampus (in a separate study) following subcutaneous injection with 3.6 mg/kg. 2 hours after injection the mice were sacrificed by cervical dislocation and striatal tissue was isolated by dissection and snap frozen in liquid nitrogen and stored at −80° C. until further use. To assess the activation of CREB and AMPK, the tissue was lysed using a TissueLyser in lysis buffer containing cOmplete and DTT. The samples were subsequently homogenized by sonication. The phosphorylation of CREB on serine 133 and threonine 172 on AMPK was subsequently validated by western blotting and the levels of were normalized to beta-actin. Student's t-test was used for statistical analysis.

Series [4] in a line: Plasma stability, human plasma. The series is classed as in vitro ADME. As to conditions: 2 μM, 37° C. The method, then: Mouse or human plasma were incubated with 2 μM of P1 (SEQ ID NO: 1) or propantheline bromide (positive control for degradation) and left at 37° C. At each time point, stop solution was added to precipitate the solution and after mixing and centrifugation, supernatant was used for LCMS analysis.

Series [5] in a line: Stability in L-His buffer formulation with hyaluronidase. It counts as physicochemical. Conditions: up to 7 days. The protocol: Buffer solution containing 4.4 mM L-histidine, 140 mM NaCl, 0.2% w/V Tween 20 and 1500 IU/mL hyaluronidase was incubated with 1 mM P1 at −20° C., 4° C. and 25° C. for up to 7 days. LCMS was used to ascertain the amount of P1 remaining in the solutions.

In series [6] the test system is TDP-43(ΔNLS)-YFP. Description: Clearance of cytoplasmic TDP-43 in HEK293 cells, western blotting. The series is classed as cell-based. As to conditions: dose-range of P1, 24 hours. The protocol: 100,000 HEK293T cells were seeded in a 24-well plate per well. At 60% confluency the cells were transfected with a form of TDP-43-YFP with a mutated nuclear localization signal (TDP-43(ΔNLS)-YFP) to restrict TDP-43 to the cytosol, which is the pathogenic localization in frontotemporal dementia^67. After 24 hours, the cells were treated with a dose-range of peptide P1 and further incubated for another 24 hours. The cells were subsequently lysed in lysis buffer containing DTT and cOmplete cocktail protease inhibitor. The levels of TDP-43 were validated by western blotting using an anti-GFP antibody and the levels were normalized to beta-actin.

For series [7], the system named is GRN. As to the kind of experiment: GRN levels in hippocampus of wild-type mice after 7 days daily SC treatment. It counts as in vivo, mouse. As to conditions: 13 mg/kg SC daily for 7 days, sacrificed on day 8. The protocol: Wild-type mice were injected with a daily dose of 13 mg/kg of P1 (SEQ ID NO: 1) subcutaneously in 4.38 mM L-His, 140 mM NaCl, 0.2% Tween-20 and 1500 IU hyaluronidase (pH 6.15) for 7 days. The mice were sacrificed on day 8. The hippocampus was isolated and lysed using a TissueLyser in RIPA lysis buffer containing cOmplete and phosSTOP. Levels of GRN (ab HPA008763 from Sigma) was validated by western blotting normalized to beta-actin. Student's t-test was used for statistical analysis.

Where a SMILES comes first, the peptide text is derived from it.

For orientation: EC50 means the concentration giving half of the maximal effect. A higher EC50 goes with lower potency in that assay. What is called half-life is the time in which the quantity being followed falls by half. A high value points to slow loss. As for `CSCC[C@@H]1NC(=O)[C@H](C(C)C)NC(=O)[C@H](CC(=O)O)NC(=O)[C@H](CCC(=O)O)NC(=O)[C@H](CCC(=O)O)NC(=O)[C@H](Cc2c[nH]cn2)NC(=O)[C@H](CCC(=O)O)NC(=O)[C@H](C(C)C)NC(=O)[C@@H]2CCCN2C(=O)[C@H](CCC(=O)O)NC(=O)[C@H]([C@@H](C)O)NC1=O` [Peptide P1, [MTEPVEHEEDV]] (cyclo(MTEPVEHEEDV)), the “survival in drug-dose response study” value in series [1] (BDNF as positive control) was “increases survival”. Moreover, the EC50 in series [1] (drug-dose response, Example 5) turned out to be 2700 nM. The mitochondrial mass result in series [2] (Q7 cells) was “mitochondrial mass is increased”; in series [2] (Q111 cells, 24 hours) it was “increased above the baseline from the healthy cell line”. For the same compound, the “dose resulting in the highest efficacy” value in series [3] (CREB and AMPK activation in striatum) amounted to 13 mg/kg. The pAMPK in striatum result in series [3] (doses between 0.13-13 mg/kg, 2 hours after injection) is recorded as “significantly activated”. Also, in series [3] (doses between 0.13-26 mg/kg, 2 hours after injection), the “pCREB (S133) in striatum” value is recorded as “significantly activated”. The compound also registered a half-life in series [4] of more than 4.82 h. The “stability in buffer (amount remaining, LCMS)” value in series [5] (1 mM P1, 4° C.) is “no stability issues”; in series [5] (1 mM P1, 25° C.), “could affect stability after 4 days”; in series [5] (1 mM P1, −20° C.), “no stability issues”. Moreover, the “cytoplasmic TDP-43 levels” value in series [6] was “decreased the pathogenic cytoplasmic form of TDP-43”. For the same compound, in series [7], the “GRN levels in hippocampus” value was “higher levels of GRN”.
